20 compounds from BindingDB's records for doi:10.1016/j.bmcl.2015.03.038 (Bristol Myers Squibb, 2015) can be followed below.

Test [1] concerns the target Neurogenic locus notch homolog protein 3 (Human, UniProt Q9UM47). Briefly: Inhibition of Notch3 intracellular domain fragment transfected in human HeLa cells co-transfected with CBF1-PGL3 luciferase reporter vector by transactivation assay. A general note: In a reporter assay the amount or activity of a reporter protein is the signal.
Test [2] deals with Neurogenic locus notch homolog protein 1 (Homo sapiens, UniProt P46531). In words: Inhibition of Notch1 intracellular domain fragment transfected in human HeLa cells co-transfected with CBF1-PGL3 luciferase reporter vector by transactivation assay.
Test [3] addresses Neurogenic locus notch homolog protein 2 (Homo sapiens, UniProt Q04721). Briefly: Inhibition of Notch2 intracellular domain fragment transfected in human HeLa cells co-transfected with CBF1-PGL3 luciferase reporter vector by transactivation assay.
For test [4], the target named is Neurogenic locus notch homolog protein 4 (Homo sapiens, UniProt Q99466). Briefly: Inhibition of Notch4 intracellular domain fragment transfected in human HeLa cells co-transfected with CBF1-PGL3 luciferase reporter vector by transactivation assay.

Neurogenic locus notch homolog protein 3, sequence (Q9UM47 whole entry, the tested form may be a part): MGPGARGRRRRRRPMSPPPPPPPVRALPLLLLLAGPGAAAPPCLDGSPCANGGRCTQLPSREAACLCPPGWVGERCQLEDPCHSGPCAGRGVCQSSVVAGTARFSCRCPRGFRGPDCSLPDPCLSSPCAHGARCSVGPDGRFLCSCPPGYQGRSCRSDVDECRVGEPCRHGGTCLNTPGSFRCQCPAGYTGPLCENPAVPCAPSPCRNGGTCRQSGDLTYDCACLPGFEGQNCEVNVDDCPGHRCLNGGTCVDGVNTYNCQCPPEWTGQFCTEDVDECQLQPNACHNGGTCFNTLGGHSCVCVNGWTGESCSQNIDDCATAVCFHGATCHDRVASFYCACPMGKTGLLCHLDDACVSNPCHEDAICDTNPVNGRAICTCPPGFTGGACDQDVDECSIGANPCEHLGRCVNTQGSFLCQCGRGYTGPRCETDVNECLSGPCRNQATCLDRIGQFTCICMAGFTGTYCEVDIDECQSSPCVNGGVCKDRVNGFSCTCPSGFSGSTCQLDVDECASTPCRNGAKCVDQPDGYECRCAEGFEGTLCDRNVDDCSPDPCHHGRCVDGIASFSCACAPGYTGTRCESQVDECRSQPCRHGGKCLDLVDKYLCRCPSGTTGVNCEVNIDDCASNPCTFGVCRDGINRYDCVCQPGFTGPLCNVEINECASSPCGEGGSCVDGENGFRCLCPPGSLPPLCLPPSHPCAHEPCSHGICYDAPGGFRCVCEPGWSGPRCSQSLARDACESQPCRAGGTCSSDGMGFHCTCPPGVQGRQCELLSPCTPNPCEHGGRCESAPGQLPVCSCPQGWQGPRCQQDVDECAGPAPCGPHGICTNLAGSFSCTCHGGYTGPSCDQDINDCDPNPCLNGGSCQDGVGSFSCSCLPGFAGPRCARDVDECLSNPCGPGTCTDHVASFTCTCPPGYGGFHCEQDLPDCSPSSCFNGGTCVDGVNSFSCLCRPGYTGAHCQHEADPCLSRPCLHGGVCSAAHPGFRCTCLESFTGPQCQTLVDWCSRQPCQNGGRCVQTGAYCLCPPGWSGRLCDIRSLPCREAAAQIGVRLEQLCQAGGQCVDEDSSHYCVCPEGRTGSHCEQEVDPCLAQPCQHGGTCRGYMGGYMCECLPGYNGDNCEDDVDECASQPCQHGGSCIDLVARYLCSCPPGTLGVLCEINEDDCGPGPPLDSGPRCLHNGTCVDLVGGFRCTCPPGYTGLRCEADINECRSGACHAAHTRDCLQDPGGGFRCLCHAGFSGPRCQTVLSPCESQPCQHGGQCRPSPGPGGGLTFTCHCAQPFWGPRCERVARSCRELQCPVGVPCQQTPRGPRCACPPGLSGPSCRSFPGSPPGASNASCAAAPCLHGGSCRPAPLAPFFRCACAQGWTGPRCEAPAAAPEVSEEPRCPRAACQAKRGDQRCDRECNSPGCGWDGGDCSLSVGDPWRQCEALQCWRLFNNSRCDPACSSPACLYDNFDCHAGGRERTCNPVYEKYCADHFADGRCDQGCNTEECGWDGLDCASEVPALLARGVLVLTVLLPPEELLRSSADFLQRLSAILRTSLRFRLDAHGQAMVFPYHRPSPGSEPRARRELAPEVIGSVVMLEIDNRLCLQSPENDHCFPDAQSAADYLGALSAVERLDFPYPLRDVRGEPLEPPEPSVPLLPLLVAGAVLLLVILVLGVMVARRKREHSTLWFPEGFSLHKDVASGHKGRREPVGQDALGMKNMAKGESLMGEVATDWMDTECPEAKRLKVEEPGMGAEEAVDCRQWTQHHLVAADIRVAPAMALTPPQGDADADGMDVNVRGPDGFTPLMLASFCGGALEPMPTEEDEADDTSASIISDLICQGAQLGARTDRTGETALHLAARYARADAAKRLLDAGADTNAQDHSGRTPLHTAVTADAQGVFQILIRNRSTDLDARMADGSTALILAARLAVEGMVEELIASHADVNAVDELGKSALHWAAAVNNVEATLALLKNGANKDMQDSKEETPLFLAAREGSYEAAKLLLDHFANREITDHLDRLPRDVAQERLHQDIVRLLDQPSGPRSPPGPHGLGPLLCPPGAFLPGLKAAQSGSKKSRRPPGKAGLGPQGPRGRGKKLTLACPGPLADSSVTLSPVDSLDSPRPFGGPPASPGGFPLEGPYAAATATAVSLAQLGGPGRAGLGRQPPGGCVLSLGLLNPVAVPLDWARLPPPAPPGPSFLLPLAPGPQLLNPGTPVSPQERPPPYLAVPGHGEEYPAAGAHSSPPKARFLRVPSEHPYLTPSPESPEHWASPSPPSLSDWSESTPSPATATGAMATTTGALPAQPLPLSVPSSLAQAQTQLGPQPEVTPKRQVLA
Neurogenic locus notch homolog protein 1, sequence (P46531 whole entry, the tested form may be a part): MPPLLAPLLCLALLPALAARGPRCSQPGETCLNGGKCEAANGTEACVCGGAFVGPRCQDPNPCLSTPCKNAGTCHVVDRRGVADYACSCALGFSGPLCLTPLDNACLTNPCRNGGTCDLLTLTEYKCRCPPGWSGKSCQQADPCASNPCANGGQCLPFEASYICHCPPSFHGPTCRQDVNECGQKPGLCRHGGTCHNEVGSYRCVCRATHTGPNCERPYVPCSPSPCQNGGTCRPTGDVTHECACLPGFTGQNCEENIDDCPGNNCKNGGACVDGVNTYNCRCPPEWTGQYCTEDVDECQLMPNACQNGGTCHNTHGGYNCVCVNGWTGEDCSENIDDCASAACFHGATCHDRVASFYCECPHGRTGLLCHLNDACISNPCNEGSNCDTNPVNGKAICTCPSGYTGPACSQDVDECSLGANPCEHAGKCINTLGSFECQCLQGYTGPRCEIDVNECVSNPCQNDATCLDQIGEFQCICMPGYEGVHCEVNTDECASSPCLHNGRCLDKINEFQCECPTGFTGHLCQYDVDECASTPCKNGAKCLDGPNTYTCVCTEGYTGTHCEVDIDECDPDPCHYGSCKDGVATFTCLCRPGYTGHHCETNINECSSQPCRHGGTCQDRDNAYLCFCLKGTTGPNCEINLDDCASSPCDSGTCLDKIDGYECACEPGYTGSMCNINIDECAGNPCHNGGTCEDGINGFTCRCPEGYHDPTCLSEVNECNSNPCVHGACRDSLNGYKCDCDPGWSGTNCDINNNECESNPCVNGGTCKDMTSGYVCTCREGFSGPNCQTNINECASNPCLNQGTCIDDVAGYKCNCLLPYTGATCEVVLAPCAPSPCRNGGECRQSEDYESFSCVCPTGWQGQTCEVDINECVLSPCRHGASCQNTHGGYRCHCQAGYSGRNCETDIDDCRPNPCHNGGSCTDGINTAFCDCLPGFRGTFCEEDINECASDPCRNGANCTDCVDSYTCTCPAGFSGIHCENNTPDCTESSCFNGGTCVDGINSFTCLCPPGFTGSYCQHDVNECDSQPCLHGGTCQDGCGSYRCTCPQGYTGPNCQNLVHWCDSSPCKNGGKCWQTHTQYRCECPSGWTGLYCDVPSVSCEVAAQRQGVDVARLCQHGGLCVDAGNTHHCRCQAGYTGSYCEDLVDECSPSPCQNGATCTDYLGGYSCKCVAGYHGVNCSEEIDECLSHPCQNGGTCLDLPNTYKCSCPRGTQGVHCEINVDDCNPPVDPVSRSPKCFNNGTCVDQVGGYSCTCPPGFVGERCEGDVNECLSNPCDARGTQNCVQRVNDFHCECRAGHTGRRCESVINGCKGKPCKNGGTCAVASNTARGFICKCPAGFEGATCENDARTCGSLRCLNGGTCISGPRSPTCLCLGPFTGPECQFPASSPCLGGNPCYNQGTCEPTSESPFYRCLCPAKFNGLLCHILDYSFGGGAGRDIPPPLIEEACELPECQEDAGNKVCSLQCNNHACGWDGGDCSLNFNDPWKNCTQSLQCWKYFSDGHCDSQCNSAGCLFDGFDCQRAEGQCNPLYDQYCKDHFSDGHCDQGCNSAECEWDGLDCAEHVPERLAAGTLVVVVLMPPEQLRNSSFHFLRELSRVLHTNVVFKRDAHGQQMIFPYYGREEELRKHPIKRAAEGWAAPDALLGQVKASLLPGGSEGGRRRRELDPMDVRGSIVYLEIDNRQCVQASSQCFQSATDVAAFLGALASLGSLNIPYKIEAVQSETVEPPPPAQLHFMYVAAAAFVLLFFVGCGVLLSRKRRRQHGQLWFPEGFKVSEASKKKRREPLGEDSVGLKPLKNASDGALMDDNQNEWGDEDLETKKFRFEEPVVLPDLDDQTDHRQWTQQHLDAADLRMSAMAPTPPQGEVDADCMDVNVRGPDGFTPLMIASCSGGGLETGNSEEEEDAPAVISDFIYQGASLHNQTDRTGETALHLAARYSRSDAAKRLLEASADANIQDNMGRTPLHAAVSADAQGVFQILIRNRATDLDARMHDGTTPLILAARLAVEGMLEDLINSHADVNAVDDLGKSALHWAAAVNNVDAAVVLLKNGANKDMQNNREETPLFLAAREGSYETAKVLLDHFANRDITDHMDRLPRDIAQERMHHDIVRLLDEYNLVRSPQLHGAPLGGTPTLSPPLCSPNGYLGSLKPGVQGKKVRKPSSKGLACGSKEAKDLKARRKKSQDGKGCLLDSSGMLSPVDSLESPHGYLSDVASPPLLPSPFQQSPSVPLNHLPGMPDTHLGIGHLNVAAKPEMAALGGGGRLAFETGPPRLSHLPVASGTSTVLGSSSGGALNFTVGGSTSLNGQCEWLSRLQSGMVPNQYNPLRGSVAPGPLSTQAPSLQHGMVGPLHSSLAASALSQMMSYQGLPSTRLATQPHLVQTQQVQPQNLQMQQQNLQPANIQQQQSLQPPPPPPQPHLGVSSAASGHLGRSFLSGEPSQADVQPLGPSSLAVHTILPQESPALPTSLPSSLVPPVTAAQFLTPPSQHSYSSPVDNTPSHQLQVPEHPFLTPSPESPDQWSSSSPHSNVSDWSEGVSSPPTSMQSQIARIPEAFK

As to `Cc1cccc([C@H](C(N)=O)[C@@H](CCC(F)(F)F)C(=O)N[C@H]2N=C(c3ccccc3)c3ccccc3N(C)C2=O)c1`, the IC50 (usually the concentration at which inhibition is half-maximal) in test [1] amounted to 1 nM; in test [2] it was 3 nM.
Regarding `CN1C(=O)[C@@H](NC(=O)[C@H](CCC(F)(F)F)[C@@H](C(N)=O)c2ccccc2)N=C(c2ccccc2)c2ccccc21`, the results for the half-inhibitory concentration (IC50) in test [3] and in test [4] were 1 nM and 3 nM, respectively.
`Cc1nocc1[C@H](C(N)=O)[C@@H](CCC(F)(F)F)C(=O)N[C@H]1N=C(c2ccccc2)c2ccccc2N(C)C1=O`: the IC50 in test [1] and in test [2] was 3 nM each time.
Take `Cc1cc([C@H](C(N)=O)[C@@H](CCC(F)(F)F)C(=O)N[C@H]2N=C(c3ccccc3)c3ccccc3N(C)C2=O)no1`: the IC50 in test [1] was 62 nM; in test [2], 54 nM.
Take `Cc1nc([C@H](C(N)=O)[C@@H](CCC(F)(F)F)C(=O)N[C@H]2N=C(c3ccccc3)c3ccccc3N(C)C2=O)no1`: the figures for the IC50 in test [1] and in test [2] were 119 nM and 169 nM, respectively.
Take `NC(=O)[C@@H](c1cnoc1)[C@@H](CCC(F)(F)F)C(=O)N[C@H]1N=C(c2ccccc2)c2ccccc2NC1=O`: the half-inhibitory concentration (IC50) is 29 nM in test [1] and 32 nM in test [2].
Consider `NC(=O)[C@@H](c1cocn1)[C@@H](CCC(F)(F)F)C(=O)N[C@H]1N=C(c2ccccc2)c2ccccc2NC1=O`, for which the results for the IC50 in test [1] and in test [2] were 161 nM and 231 nM, respectively.
As for `NC(=O)[C@@H](c1ncon1)[C@@H](CCC(F)(F)F)C(=O)N[C@H]1N=C(c2ccccc2)c2ccccc2NC1=O`, the half-inhibitory concentration (IC50) is 656 nM in test [1] and 1190 nM in test [2].
The corresponding values for `CCC[C@H](C(N)=O)[C@@H](CC(F)(F)F)C(=O)N[C@H]1N=C(c2ccccc2)c2ccccc2N(C)C1=O` are 24 nM and 13 nM.
The matching figures for `CCC(CC)[C@H](C(N)=O)[C@@H](CCC(F)(F)F)C(=O)N[C@H]1N=C(c2ccccc2)c2ccccc2N(C)C1=O`: 1 nM and 1 nM.
In the case of `CCC(CC)[C@H](C(N)=O)[C@@H](CC(C)(C)C)C(=O)N[C@H]1N=C(c2ccccc2)c2ccccc2N(C)C1=O`, the IC50 in test [1] and in test [2] was 3 nM throughout.
With `CCC(CC)[C@H](C(N)=O)[C@@H](CC(C)C)C(=O)N[C@H]1N=C(c2ccccc2)c2ccccc2N(C)C1=O`, the IC50 in test [2] is 2 nM.
`CN1C(=O)[C@@H](NC(=O)[C@H](CCC(F)(F)F)[C@@H](C(N)=O)c2cc(F)cc(F)c2)N=C(c2ccccc2)c2ccccc21`: the IC50 in test [1] and in test [2] was 2 nM in each case.
In the case of `CN1C(=O)[C@@H](NC(=O)[C@H](CCC(F)(F)F)[C@@H](C(N)=O)c2ccc(F)cc2F)N=C(c2ccccc2)c2ccccc21`, the IC50 in test [1] and in test [2] was 1 nM throughout.
Regarding `CN1C(=O)[C@@H](NC(=O)[C@H](CCC(F)(F)F)[C@@H](C(N)=O)c2ccc(F)c(F)c2)N=C(c2ccccc2)c2ccccc21`, the IC50 in test [1] and in test [2] was 2 nM throughout.
Take `CN1C(=O)[C@@H](NC(=O)[C@H](CCC(F)(F)F)[C@@H](C(N)=O)c2ccc(F)cc2)N=C(c2ccccc2)c2ccccc21`: the figures for the IC50 in test [1] and in test [2] were 1 nM and 2 nM, respectively.
For `COc1ccc([C@H](C(N)=O)[C@@H](CCC(F)(F)F)C(=O)N[C@H]2N=C(c3ccccc3)c3ccccc3N(C)C2=O)cc1`, the half-inhibitory concentration (IC50) in test [1] is 6 nM; in test [2], 9 nM.
Consider `CN1C(=O)[C@@H](NC(=O)[C@H](CCC(F)(F)F)[C@@H](C(N)=O)c2cccc(S(C)(=O)=O)c2)N=C(c2ccccc2)c2ccccc21`, for which the figures for the half-maximal inhibitory concentration (IC50) in test [1] and in test [2] were 2240 nM and 2060 nM, respectively.
Consider `CN1C(=O)[C@@H](NC(=O)[C@H](CCC(F)(F)F)[C@@H](C(N)=O)c2cccc(OC(F)(F)F)c2)N=C(c2ccccc2)c2ccccc21`, for which the IC50 was found to be 4 nM in test [1] and 3 nM in test [2].
For `CN1C(=O)[C@@H](NC(=O)[C@H](CCC(F)(F)F)[C@@H](C(N)=O)c2cccc(C(F)(F)F)c2)N=C(c2ccccc2)c2ccccc21`, the IC50 in test [1] was determined as 2 nM; in test [2], 1 nM.
